Measurements published in article PMC6273595, “Study of the Activity and Possible Mechanism of Action of a Reversible Inhibitor of Recombinant Human KAT-2: A Promising Lead in Neurodegenerative and Cognitive Disorders” (Molecules, 2016).
Like-named read-outs stand apart in the source and are kept apart here. Blank lines part the entries; values can stand above or below the molecule they belong to.

Experiments:
[1] = biological target: T1, KAT-2 (kynurenine aminotransferase-2) (Homo sapiens, UniProt Q8N5Z0); assay: HPLC assay of KYN to KYNA conversion by recombinant human KAT-2; assay type: biochemical
T1 construct: gene AADAT; recombinant KAT-2
T1 sequence (Q8N5Z0 30-425): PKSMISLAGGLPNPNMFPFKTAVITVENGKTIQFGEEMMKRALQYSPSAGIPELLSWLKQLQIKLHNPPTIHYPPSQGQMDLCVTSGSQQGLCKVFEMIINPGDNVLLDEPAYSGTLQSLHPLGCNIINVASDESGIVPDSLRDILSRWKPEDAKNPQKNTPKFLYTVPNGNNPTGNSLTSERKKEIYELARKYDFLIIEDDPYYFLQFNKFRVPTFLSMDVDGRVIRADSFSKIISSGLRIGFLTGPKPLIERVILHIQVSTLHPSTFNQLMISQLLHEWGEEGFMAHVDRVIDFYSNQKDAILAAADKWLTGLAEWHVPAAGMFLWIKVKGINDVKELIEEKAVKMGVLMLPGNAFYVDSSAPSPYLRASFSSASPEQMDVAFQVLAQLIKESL

[2] = biological target: T1, KAT-2 (kynurenine aminotransferase-2); assay: HPLC assay of KYN to KYNA conversion by recombinant human KAT-2, % inhibition at […]; assay type: biochemical

SMILES: N[C@H]1Cc2ccccc2N(O)C1=O [PF-04859989]
IC50 [1]: 1 to 3 µM

IC50 ([1]; read-out: IC50): 15 to 20 µM
SMILES: C[C@H]1COc2c(N3CCN(N)CC3)c(F)cc3c(=O)c(C(=O)O)cn1c23 [BFF-122]

inhibition at 200 µM [2]: 20%
SMILES: CCS(=O)(=O)c1ccc(C(=O)C[C@H](N)C(=O)O)cc1 [(S)-ESBA, (S)-4-(Ethylsulfonyl)benzoylalanine]
